In patent US7138361B2, “Herbicidal heterocycles” (E. I. du Pont de Nemours and Company, priority 2000, dated 2006):

Assays:
Assay type in all cases: in vivo
[1] = tested on: blackgrass (Alopecurus myosuroides); experiment: Test B postemergence; conditions: 13 to 15 days
Method in brief: (§1)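 Greenhouse test: chemicals are formulated in a surfactant-containing non-phytotoxic solvent and applied either preemergence to planted seeds or postemergence to plants 2 to 18 cm tall. Response is rated visually versus controls after 13 to 15 days, 0 meaning no effect and 100 complete control.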

[2] = tested on: Surinam grass (Brachiaria decumbens); experiment: Test B postemergence; conditions: 13 to 15 days
Method in brief: as §1

[3] = tested on: wheat (Triticum aestivum); experiment: Test B postemergence; conditions: 13 to 15 days
Method in brief: as §1

wild oat (Avena fatua) = experiment: Test B postemergence; conditions: 13 to 15 days
Method in brief: as §1

[4] = tested on: morning glory (Ipomoea hederacea); experiment: Test B postemergence; conditions: 13 to 15 days
Method in brief: as §1

[5] = tested on: barnyardgrass (Echinochloa crus-galli); experiment: Test B postemergence; conditions: 13 to 15 days
Method in brief: as §1

[6] = tested on: lambsquarters (Chenopodium album); experiment: Test B postemergence; conditions: 13 to 15 days
Method in brief: as §1

[7] = tested on: crabgrass (Digitaria sanguinalis); experiment: Test B postemergence; conditions: 13 to 15 days
Method in brief: as §1

[8] = tested on: cocklebur (Xanthium strumarium); experiment: Test B postemergence; conditions: 13 to 15 days
Method in brief: as §1

corn (Zea mays) [9] = experiment: Test B postemergence; conditions: 13 to 15 days
Method in brief: as §1

[10] = tested on: giant foxtail (Setaria faberii); experiment: Test B postemergence; conditions: 13 to 15 days
Method in brief: as §1

[11] = tested on: pigweed (Amaranthus retroflexus); experiment: Test B postemergence; conditions: 13 to 15 days
Method in brief: as §1

[12] = tested on: velvetleaf (Abutilon theophrasti); experiment: Test B postemergence; conditions: 13 to 15 days
Method in brief: as §1

[13] = tested on: duck salad (Heteranthera limosa); experiment: Test B flooded paddy test; conditions: Rate 1000 g/ha, scale of 0 to 100 where 0 is no effect and 100 is complete control, visually evaluated after 13 to 15 days
Method in brief: (§2)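 Visual injury score on a 0–100 scale, where 100 means complete control, assigned against untreated controls 13 to 15 days after plants at the 2-leaf stage were treated under flooded paddy conditions.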

[14] = tested on: smallflower flatsedge (Cyperus difformis); experiment: Test B flooded paddy test; conditions: Rate 1000 g/ha, scale of 0 to 100 where 0 is no effect and 100 is complete control, visually evaluated after 13 to 15 days
Method in brief: as §2

[15] = tested on: barnyardgrass (Echinochloa crus-galli); experiment: Test B flooded paddy test; conditions: Rate 1000 g/ha, scale of 0 to 100 where 0 is no effect and 100 is complete control, visually evaluated after 13 to 15 days
Method in brief: as §2

rice (Oryza saliva) [16] = experiment: Test B flooded paddy test; conditions: Rate 1000 g/ha, scale of 0 to 100 where 0 is no effect and 100 is complete control, visually evaluated after 13 to 15 days
Method in brief: as §2

[17] = tested on: Surinam grass (Brachiaria decumbens); experiment: Test B preemergence
Method in brief: as §1

[18] = tested on: morning glory (Ipomoea hederacea); experiment: Test B preemergence
Method in brief: as §1

[19] = tested on: barnyardgrass (Echinochloa crus-galli); experiment: Test B preemergence
Method in brief: as §1

[20] = tested on: lambsquarters (Chenopodium album); experiment: Test B preemergence
Method in brief: as §1

[21] = tested on: crabgrass (Digitaria sanguinalis); experiment: Test B preemergence
Method in brief: as §1

[22] = tested on: cocklebur (Xanthium strumarium); experiment: Test B preemergence; conditions: scale 0 to 100, 0 no effect, 100 complete control
Method in brief: as §1

corn (Zea mays) [23] = experiment: Test B preemergence
Method in brief: as §1

rice (Oryza saliva) [24] = experiment: Test B preemergence
Method in brief: as §1

[25] = tested on: giant foxtail (Setaria faberii); experiment: Test B preemergence
Method in brief: as §1

[26] = tested on: pigweed (Amaranthus retroflexus); experiment: Test B preemergence
Method in brief: as §1

[27] = tested on: velvetleaf (Abutilon theophrasti); experiment: Test B preemergence
Method in brief: as §1

[28] = tested on: duck salad (Heteranthera limosa); experiment: Test C flooded paddy test; conditions: for Ducksalad plant response rating: scale 0 to 100, 0 no effect, 100 complete control
Method in brief: (§3)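 Flooded paddy, 2-leaf stage at treatment. Readout: visual % control vs untreated, 0–100, at 12–14 d in greenhouse.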

[29] = tested on: smallflower flatsedge (Cyperus difformis); experiment: Test C flooded paddy test; conditions: for Flatsedge plant response rating: Flooded Paddy, scale 0 to 100, 0 no effect, 100 complete control; for Plant response rating, Flatsedge: flooded paddy test, scale 0 to 100 (0 no effect, 100 complete control)
Method in brief: as §3

[30] = tested on: barnyardgrass (Echinochloa crus-galli); experiment: Test C flooded paddy test; conditions: for Barnyardgrass plant response rating: scale 0 to 100, 0 no effect, 100 complete control
Method in brief: as §3

rice (Oryza saliva) [31] = experiment: Test C flooded paddy test; conditions: for Rice plant response rating: scale 0 to 100, 0 no effect, 100 complete control
Method in brief: as §3

[32] = Rate 125 g/ha, scale 0 (no effect) to 100 (complete control)
[33] = Rate 500 g/ha, scale 0 to 100, 0 is no effect, 100 is complete control
[34] = Preemergence, Rate 500 g/ha, scale 0 to 100, 0 no effect, 100 complete control
[35] = preemergence, Rate 125 g/ha, scale of 0 to 100 where 0 is no effect and 100 is complete control, 13 to 15 days
[36] = flooded paddy test, Rate 62 g/ha, scale 0 to 100 (0 no effect, 100 complete control)
[37] = flooded paddy test, Rate 125 g/ha, scale 0 to 100 (0 no effect, 100 complete control)
[38] = preemergence, Rate 125 g/ha, scale 0 to 100, 0 no effect, 100 complete control
[39] = Flooded Paddy, Rate 500 g/ha, scale 0 to 100

Cc1cc(N2CCC(n3ccc(C(C)(C)C)n3)C2=O)ccc1Cl (stereo not drawn) [Compound 53]
Plant response rating, Blackgrass [1, 32]: 0 | Plant response rating, Blackgrass [1, 33]: 0 | Plant response rating, Surinam grass [2, 32]: 0 | Plant response rating, Surinam grass [2, 33]: 0 | Plant response rating, Wheat [3, 32]: 0 | Plant response rating, Wheat [3, 33]: 0 | Plant response rating, Wild Oat (wild oat (Avena fatua); [32]): 0 | Plant response rating, Wild Oat (wild oat (Avena fatua); [33]): 0 | Plant response rating, Morningglory [4, 32]: 0 | Plant response rating, Morningglory [4, 33]: 10 | Plant response rating, Barnyardgrass [5, 32]: 0 | Plant response rating, Barnyardgrass [5, 33]: 0 | Plant response rating, Lambsquarters [6, 32]: 40 | Plant response rating, Lambsquarters [6, 33]: 80 | Plant response rating, Crabgrass [7, 32]: 0 | Plant response rating, Crabgrass [7, 33]: 0 | Plant response rating, Cocklebur [8, 32]: 0 | Plant response rating, Cocklebur [8, 33]: 0 | Plant response rating, Corn (corn (Zea mays) [9]; [32]): 0 | Plant response rating, Corn (corn (Zea mays) [9]; [33]): 10 | Plant response rating, Foxtail, Giant [10, 32]: 0 | Plant response rating, Foxtail, Giant [10, 33]: 0 | Plant response rating, Pigweed [11, 32]: 80 | Plant response rating, Pigweed [11, 33]: 90 | Plant response rating, Velvetleaf [12, 32]: 0 | Plant response rating, Velvetleaf [12, 33]: 0 | Plant response rating, Ducksalad [13]: 30 | Plant response rating, Flatsedge [14]: 90 | Plant response rating, Barnyardgrass [15]: 100 | Plant response rating, Rice (rice (Oryza saliva) [16]): 20 | Plant response rating, Surinam grass [17, 34]: 0 | Plant response rating, Surinam grass [17, 35]: 0 | Plant response rating, Morningglory [18, 34]: 0 | Plant response rating, Morningglory [18, 35]: 0 | Plant response rating, Barnyardgrass [19, 34]: 90 | Plant response rating, Barnyardgrass [19, 35]: 0 | Plant response rating, Lambsquarters [20, 34]: 100 | Plant response rating, Lambsquarters [20, 35]: 100 | Plant response rating, Crabgrass [21, 34]: 0 | Plant response rating, Crabgrass [21, 35]: 0 | Plant response rating, Cocklebur ([22]; Preemergence, Rate 500 g/ha): 0 | Plant response rating, Corn (corn (Zea mays) [23]; [34]): 0 | Plant response rating, Corn (corn (Zea mays) [23]; [35]): 0 | Plant response rating, Rice (rice (Oryza saliva) [24]; [34]): 0 | Plant response rating, Rice (rice (Oryza saliva) [24]; [35]): 0 | Plant response rating, Foxtail, Giant [25, 34]: 0 | Plant response rating, Foxtail, Giant [25, 35]: 0 | Plant response rating, Pigweed [26, 34]: 100 | Plant response rating, Pigweed [26, 35]: 100 | Plant response rating, Velvetleaf [27, 34]: 0 | Plant response rating, Velvetleaf [27, 35]: 0 | Ducksalad plant response rating ([28]; Flooded Paddy, Rate 250 g/ha): 50 | Ducksalad plant response rating ([28]; Flooded Paddy, Rate 500 g/ha): 60 | Plant response rating, Ducksalad [28, 36]: 20 | Plant response rating, Ducksalad [28, 37]: 40 | Flatsedge plant response rating ([29]; Rate 250 g/ha): 90 | Flatsedge plant response rating ([29]; Rate 500 g/ha): 100 | Plant response rating, Flatsedge ([29]; Rate 62 g/ha): 80 | Plant response rating, Flatsedge ([29]; Rate 125 g/ha): 90 | Barnyardgrass plant response rating ([30]; Flooded Paddy, Rate 250 g/ha): 70 | Barnyardgrass plant response rating ([30]; Flooded Paddy, Rate 500 g/ha): 100 | Plant response rating, Barnyardgrass [30, 36]: 20 | Plant response rating, Barnyardgrass [30, 37]: 30 | Rice plant response rating (rice (Oryza saliva) [31]; Flooded Paddy, Rate 250 g/ha): 0 | Rice plant response rating (rice (Oryza saliva) [31]; Flooded Paddy, Rate 500 g/ha): 0 | Plant response rating, Rice (rice (Oryza saliva) [31]; [36]): 0 | Plant response rating, Rice (rice (Oryza saliva) [31]; [37]): 0

Cc1ccn(C2SCN(c3cccc(C(F)(F)F)c3)C2=O)n1 (stereo not drawn) [Compound 19]
Plant response rating, Blackgrass [1, 32]: 0 | Plant response rating, Blackgrass [1, 33]: 0 | Plant response rating, Surinam grass [2, 32]: 0 | Plant response rating, Surinam grass [2, 33]: 10 | Plant response rating, Wheat [3, 32]: 0 | Plant response rating, Wheat [3, 33]: 0 | Plant response rating, Wild Oat (wild oat (Avena fatua); [32]): 0 | Plant response rating, Wild Oat (wild oat (Avena fatua); [33]): 0 | Plant response rating, Morningglory [4, 32]: 20 | Plant response rating, Morningglory [4, 33]: 30 | Plant response rating, Barnyardgrass [5, 32]: 0 | Plant response rating, Barnyardgrass [5, 33]: 0 | Plant response rating, Lambsquarters [6, 32]: 10 | Plant response rating, Lambsquarters [6, 33]: 70 | Plant response rating, Crabgrass [7, 32]: 0 | Plant response rating, Crabgrass [7, 33]: 20 | Plant response rating, Cocklebur [8, 32]: 20 | Plant response rating, Cocklebur [8, 33]: 20 | Plant response rating, Corn (corn (Zea mays) [9]; [32]): 0 | Plant response rating, Corn (corn (Zea mays) [9]; [33]): 0 | Plant response rating, Foxtail, Giant [10, 32]: 0 | Plant response rating, Foxtail, Giant [10, 33]: 0 | Plant response rating, Pigweed [11, 32]: 0 | Plant response rating, Pigweed [11, 33]: 0 | Plant response rating, Velvetleaf [12, 32]: 10 | Plant response rating, Velvetleaf [12, 33]: 20 | Plant response rating, Ducksalad [13]: 80 | Plant response rating, Flatsedge [14]: 90 | Plant response rating, Barnyardgrass [15]: 60 | Plant response rating, Rice (rice (Oryza saliva) [16]): 0 | Plant response rating, Surinam grass [17, 34]: 20 | Plant response rating, Surinam grass [17, 38]: 0 | Plant response rating, Morningglory [18, 34]: 0 | Plant response rating, Morningglory [18, 38]: 0 | Plant response rating, Barnyardgrass [19, 34]: 0 | Plant response rating, Barnyardgrass [19, 38]: 0 | Plant response rating, Lambsquarters [20, 34]: 60 | Plant response rating, Lambsquarters [20, 38]: 0 | Plant response rating, Crabgrass [21, 34]: 0 | Plant response rating, Crabgrass [21, 38]: 0 | Plant response rating, Cocklebur ([22]; Preemergence, Rate 500 g/ha): 0 | Plant response rating, Cocklebur ([22]; preemergence, Rate 125 g/ha): 0 | Plant response rating, Corn (corn (Zea mays) [23]; [34]): 0 | Plant response rating, Corn (corn (Zea mays) [23]; [38]): 0 | Plant response rating, Rice (rice (Oryza saliva) [24]; [34]): 0 | Plant response rating, Rice (rice (Oryza saliva) [24]; [38]): 0 | Plant response rating, Foxtail, Giant [25, 34]: 0 | Plant response rating, Foxtail, Giant [25, 38]: 0 | Plant response rating, Pigweed [26, 34]: 0 | Plant response rating, Pigweed [26, 38]: 0 | Plant response rating, Velvetleaf [27, 34]: 0 | Plant response rating, Velvetleaf [27, 38]: 0 | Plant response rating, Ducksalad [28, 39]: 0 | Ducksalad plant response rating ([28]; Flooded Paddy, Rate 250 g/ha): 0 | Plant response rating, Ducksalad [28, 36]: 0 | Plant response rating, Ducksalad [28, 37]: 0 | Flatsedge plant response rating ([29]; Rate 250 g/ha): 0 | Flatsedge plant response rating ([29]; Rate 500 g/ha): 30 | Plant response rating, Flatsedge ([29]; Rate 62 g/ha): 0 | Plant response rating, Flatsedge ([29]; Rate 125 g/ha): 0 | Plant response rating, Barnyardgrass [30, 39]: 0 | Barnyardgrass plant response rating ([30]; Flooded Paddy, Rate 250 g/ha): 0 | Plant response rating, Barnyardgrass [30, 36]: 0 | Plant response rating, Barnyardgrass [30, 37]: 0 | Plant response rating, Rice (rice (Oryza saliva) [31]; [39]): 0 | Rice plant response rating (rice (Oryza saliva) [31]; Flooded Paddy, Rate 250 g/ha): 0 | Plant response rating, Rice (rice (Oryza saliva) [31]; [36]): 0 | Plant response rating, Rice (rice (Oryza saliva) [31]; [37]): 0
